These results are taken from patent publication US9283280B2, “Compositions for drug administration” (Aegis Therapeutics, LLC, priority 2008, dated 2016).

In data set [1] the test system is food intake. The note with it: injection; less than usual, on average; cited from earlier work.
The conditions of data set [2]: whole-swallowed tablet, cited from earlier work.
Data set [3] relates to blood glucose. Nature of the data set: Intranasal insulin in […] TDM, anesthesia-induced hyperglycemia model. The note with it: intranasal insulin alone, minus […] TDM. Format: in vivo, mouse. An excerpt:
Intranasal administration of drugs or agents are possible in animal models e.g. mice and rats, although the nasal opening in is very small. In the experiments and results described herein, an anesthesia-induced hyperglycemia model was used (described in Examples above). Hyperglycemic animals were induced by an intraperitoneal (IP) injection containing xylazine-ketamine and blood glucose levels were monitored over a period of time. Immediately after the xylazine-ketamine injection, there was an increase in the blood glucose levels as shown in FIG. 2 (closed dark circles), and blood glucose levels were about 450 mg/dl. […] Blood glucose levels peak to about 482 mg/dl by 30 minutes after the xylazine-ketamine injection (FIG. 2). […] At about the 75 minute time point, blood glucose levels gradually returned to the baseline level in a normoglycemic mouse, or about 80-100 mg/dl.

For data set [4] the following is noted: cited from earlier work.
For data set [5], the system named is human nasal epithelium. The settings on record: in vivo.
In data set [6] the test system is mucociliary surfaces. The note with it: concentrations far below those used in intranasal formulations; cited from earlier work.
Data set [7] has as its system blood D-glucose. Nature of the data set: Insulin eye drops with absorption enhancer in xylazine/ketamine-anesthetized hyperglycemic rats, blood D-glucose. Format: in vivo, rat. The note with it: for hypoglycemic effect / insulin absorption enhancement: eye drops 0.2% insulin + 0.5% enhancer; for Blood Glucose Concentrations: insulin eye drops + 0.50% dodecyl maltoside.

Data set [8] has as its system Candida albicans (ATCC No. 10231). Nature of the data set: Antimicrobial activity of alkylglycoside solutions, plate count log reduction. It counts as cell-based. The note with it: […]. An excerpt: (§1) 20110-2209. The viable microorganisms used in the invention were not more than five passages removed from the original ATCC culture. As described herein, one passage is defined as the transfer of organisms from an established culture to fresh medium and all transfers are counted.
(§2) Cultures received from the ATCC are resuscitated according to the directions provided by the ATTC. Cells grown in broth were pelleted by centrifugation, resuspended in 1/20th the volume of fresh maintenance broth, and combined with an equal volume of 20% (v/v in water) sterile glycerol. Cells grown on agar were scraped from the surface into the maintenance broth also containing 10% glycerol broth. Small aliquots of the suspension were dispensed into sterile vials and the vials were stored in liquid nitrogen or in a mechanical freezer at a temperature no higher than about −50° C. When a fresh seed-stock vial was required, it was removed and used to inoculate a series of working stock cultures. These working stock cultures were then used periodically (each day in the case of bacteria and yeast) to start the inoculum culture.
(§3) The culture conditions for the inoculum culture is substantially as described in Table IV. For example, suitable media can include but is not limited to, Soybean-Casein Digest or Sabouraud Dextrose Agar Medium. […]
(§4) The suspension should be refrigerated if it is not used within 2 hours. To confirm the initial cfu per mL estimate, the number of cfu per mL in each suspension was determined using the conditions of media and microbial recovery incubation times listed in Table IV (e.g., from about 3 to about 7 days). This value serves to calibrate the size of inoculum used in the test. The bacterial and yeast suspensions were used within 24 hours of harvest; whereas the fungal preparation can be stored under refrigeration for up to 7 days.
(§5) To determine which alkylglycoside formulations have antibacterial activity, the formulations were prepared in phosphate buffered saline (PBS) at pH 7. As a source of nutrition, either 1.5 mg/mL bovine serum albumin (BSA; see Tables V and VI) or 1 mg/mL of PYY was added (see Table VII) to the medium. BSA (CAS Number: 9048-46-8) was obtained from Sigma-Aldrich, St. Louis, Mo., USA, n-dodecyl-4-O-α-D-glucopyranosyl-β-D-glucopyranoside and n-tetradecyl-4-O-α-D-glucopyranosyl-β-D-glucopyranoside were obtained from Anatrace Inc., Maumee, Ohio, USA, and PYY was obtained from Bachem California Inc., Torrance, Calif., USA.
(§6) Antibacterial activity of the alkylglycosides were conducted in four sterile, capped bacteriological containers of suitable size into which a sufficient volume of alkylglycoside solution had been transferred. Each container was inoculated with one of the prepared and standardized inoculums and mixed. The volume of the suspension inoculum was between about 0.5% and about 1.0% of the volume of the alkylglycoside solution. […]. To determine the level of inhibition of growth, or reduction of growth based on a logarithmic scale, the initial concentration of viable microorganisms in each test preparation was estimated based on the concentration of microorganisms in each of the standardized inoculum as determined by the plate-count method. The inoculated containers were then incubated at about 22.5° C.±2.5. The growth or non-growth of the microorganisms in each culture/container were again determined at day 14 and day 28. The number of cfu present in each calculation was determined by the plate-count procedure standard in the art for the applicable intervals. The change in the orders of magnitude of bacterium and/or fungi was then determined by subtracting the first calculated log 10 values of the concentrations of cfu per mL present at the start or beginning (e.g., day 0), from the log 10 values of the concentration of cfu per mL for each microorganism at the applicable test intervals (e.g., day 14 and day 28; see Tables V, VI and VII).

The test system of data set [9] is Aspergillus niger (ATCC No. 16404). The description is as above. It counts as cell-based. The settings on record: […].
Description: as §1, §2, §3, §4, §5, §6

Data set [10] has as its system Staphylococcus aureus (ATCC No. 6538). The data set is described as above. The note with it: […]. Format: cell-based.
Description: as §1, §2, §3, §4, §5, §6

The subject of data set [11] is Escherichia coli (ATCC No. 8739). The description is as above. The settings on record: […]. Format: cell-based.
Description: as §1, §2, §3, §4, §5, §6

Data set [12] in a line: Intranasal triptans with alkylsaccharide in rats, plasma levels by HPLC.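 Further: rats in groups of eight given 20 µL into one nostril, dose expressed as triptan free base, Cmax and Tmax read from plasma concentration–time curves.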 Format: in vivo.
[13] abbreviates: Naratriptan 0.22 mg/kg intranasal, alkylsaccharide 0.02%.
Setting [14] is: Naratriptan 0.22 mg/kg intranasal, alkylsaccharide 0.05%.
[15] abbreviates: Naratriptan 0.22 mg/kg intranasal, alkylsaccharide 0.1%.
Setting [16] is: Naratriptan 0.22 mg/kg intranasal, alkylsaccharide 0.5%.
The mark [17] stands for this setting: Naratriptan 0.22 mg/kg intranasal, alkylsaccharide 2%.
[18] abbreviates: Sumatriptan 6.2 mg/kg intranasal, alkylsaccharide 0.02%.
[19] abbreviates: Sumatriptan 6.2 mg/kg intranasal, alkylsaccharide 0.05%.
The mark [20] stands for this setting: Sumatriptan 6.2 mg/kg intranasal, alkylsaccharide 0.1%.
Setting [21] is: Sumatriptan 6.2 mg/kg intranasal, alkylsaccharide 0.5%.
Setting [22] is: Sumatriptan 6.2 mg/kg intranasal, alkylsaccharide 2%.

As to “PYY: gut hormone fragment peptide PYY3-36”, the “reduction of food eaten” value in data set [1] was 30%.

Consider `Cc1cc2c(s1)Nc1ccccc1N=C2N1CCN(C)CC1` [olanzapine, Olanzapine], for which, in data set [2] (oral dose), the “time to peak concentrations” value was “approximately 6 hours”. In [2], the “dose metabolized by first pass before reaching systemic circulation” value is “approximately 40%”.

“insulin alone: insulin (Humalog) given intranasally without TDM”: in [3], the “return to normoglycemic levels” value was “never return to normoglycemic levels” and the “time mark at which blood glucose starts to decline” value is roughly 120 min.

For `COc1ccc2[nH]cc(CCNC(C)=O)c2c1` [melatonin, 5-methoxy-N-acetyltryptamine], the “bioavailability (estimated)” value in data set [4] (oral administration) is recorded as 30-50%. In addition, in [4] (oral tablets, normal healthy volunteers, DeMuro et al. (2000)), the absolute bioavailability result was “approximately 15%”.

As for `CCCCCCCCCCCC(=O)OC[C@H]1O[C@H](O[C@]2(CO)O[C@H](CO)[C@@H](O)[C@@H]2O)[C@H](O)[C@@H](O)[C@@H]1O` [sucrose dodecanoate], in data set [5], the “irritation of the nasal mucosa” value is “no observable irritation”.

Take benzalkonium chloride: in [6], the “toxicity to mucociliary surfaces” value is on record as “significant disruption of the mucociliary surfaces”.

Turning to `CCCCCCCCCCCCO[C@@H]1O[C@H](CO)[C@@H](O[C@H]2O[C@H](CO)[C@@H](O)[C@H](O)[C@H]2O)[C@H](O)[C@H]1O` [dodecyl maltoside, n-dodecyl-4-O-α-D-glucopyranosyl-β-D-glucopyranoside], the “hypoglycemic effect / insulin absorption enhancement” value in [7] is “equally effective”; in [7] (listed as dodecyl-β3-D-maltoside), “prompt and sustained fall in blood glucose levels”. Besides, the “Blood Glucose Concentrations” value in data set [7] (time 0 min) came to 379 ± 4 mg/dL; in data set [7] (time 30 min), 297 ± 18 mg/dL; in data set [7] (time 60 min), 188 ± 25 mg/dL; in [7] (time 90 min), 141 ± 13 mg/dL; in data set [7] (time 120 min), 123 ± 5 mg/dL; in [7] (time −10 min), 366 ± 12 mg/dL. Moreover, the “Blood Glucose Concentrations” value in data set [7] (time −20 min) is 375 ± 9 mg/dL. Also, the results for the “Log Reduction of Microorganisms, Day 14” value in data set [8] (BSA), in data set [9] (BSA) and in [10] (BSA) were 3.0 orders of orders of magnitude reduction, 0.7 orders of orders of magnitude reduction and “≧5.2 orders of orders of magnitude reduction”, respectively. The “Log Reduction of Microorganisms, Day 28” value in data set [8] (BSA) is recorded as “≧5.3 orders of orders of magnitude reduction”; in data set [10] (BSA), “≧5.2 orders of orders of magnitude reduction”; in data set [11] (BSA) it was 0.1 orders of orders of magnitude reduction. The “Log Reduction, Day 14” value is given as “≧4.5 orders of orders of magnitude reduction” in data set [8] (PYY), 4.7 orders of orders of magnitude reduction in data set [9] (PYY), “≧4.9 orders of orders of magnitude reduction” in data set [10] (PYY) and “≧5 orders of orders of magnitude reduction” in data set [11] (PYY). Besides, the “Log Reduction, Day 28” value in [8] (PYY) is “≧4.5 orders of orders of magnitude reduction”; in data set [9] (PYY), 4.7 orders of orders of magnitude reduction; in data set [10] (PYY), “≧4.9 orders of orders of magnitude reduction”; in [11] (PYY), “≧5 orders of orders of magnitude reduction”. For the same molecule, the “Ratio Cmax(alkylsacch)/Cmax(No alkylsacch)” value is recorded as “≦1.5” in data set [12] (setting [13]); “≧1.5” in data set [12] (setting [14]); “≧1.5” in data set [12] (setting [15]); “≧1.5” in data set [12] (setting [16]); “≧1.5” in data set [12] (setting [17]); “≦1.5” in data set [12] (setting [18]). For the same molecule, the “Ratio Cmax(alkylsacch)/Cmax(No alkylsacch)” value in [12] (setting [19]), in data set [12] (setting [20]), in data set [12] (setting [21]) and in data set [12] (setting [22]) was “≧1.5” each time. The Tmax was roughly 60 to 120 min in data set [12] (setting [13]); roughly 5 to 15 min in data set [12] (setting [14]); roughly 5 to 15 min in data set [12] (setting [15]); roughly 5 to 15 min in data set [12] (setting [16]); roughly 5 to 15 min in [12] (setting [17]); roughly 60 to 120 min in [12] (Rizatriptan […] intranasal, alkylsaccharide 0.02%). Further, the Tmax in data set [12] (Rizatriptan […] intranasal, alkylsaccharide 0.05%) was roughly 5 to 15 min; in data set [12] (Rizatriptan […] intranasal, alkylsaccharide 0.1%), roughly 5 to 15 min; in [12] (Rizatriptan […] intranasal, alkylsaccharide 0.5%), roughly 5 to 15 min; in data set [12] (Rizatriptan […] intranasal, alkylsaccharide 2%), roughly 5 to 15 min; in data set [12] (setting [18]), roughly 60 to 120 min; in data set [12] (setting [19]), roughly 5 to 15 min. Also, the Tmax in [12] (setting [20]), in data set [12] (setting [21]) and in data set [12] (setting [22]) was roughly 5 to 15 min each time.
